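How tested: cells in 96-well plates exposed to compound for 48 hours at five concentrations. At the GI50, growth is halved. At the TGI there is no net growth.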
Assays:
Assay in all cases: NCI tumour cell line growth inhibition, 48 h
COLO 205 colon = system: COLO 205 colon
M14 melanoma = system: M14 melanoma
SK-MEL-28 melanoma = system: SK-MEL-28 melanoma
UACC-62 melanoma = system: UACC-62 melanoma
HCC-2998 colon = system: HCC-2998 colon
LOX IMVI melanoma = system: LOX IMVI melanoma
RXF 393 renal = system: RXF 393 renal
UO-31 renal = system: UO-31 renal
HOP-92 NSCLC = system: HOP-92 NSCLC
HL-60(TB) leukemia = system: HL-60(TB) leukemia

| SMILES | TGI (COLO 205 colon) | TGI (M14 melanoma) | TGI (SK-MEL-28 melanoma) | TGI (UACC-62 melanoma) | TGI (HCC-2998 colon) | TGI (LOX IMVI melanoma) | TGI (RXF 393 renal) | TGI (UO-31 renal) | TGI (HOP-92 NSCLC) | GI50 (COLO 205 colon) | GI50 (M14 melanoma) | GI50 (SK-MEL-28 melanoma) | GI50 (UACC-62 melanoma) | GI50 (HCC-2998 colon) | GI50 (LOX IMVI melanoma) | GI50 (RXF 393 renal) | GI50 (UO-31 renal) | GI50 (HL-60(TB) leukemia) | TGI (HL-60(TB) leukemia) | GI50 (HOP-92 NSCLC) |
| --- | --- | --- | --- | --- | --- | --- | --- | --- | --- | --- | --- | --- | --- | --- | --- | --- | --- | --- | --- | --- |
| COc1cc(C(=O)O)c([N+](=O)[O-])c(OC)c1OC | > 100 µM | > 100 µM | > 100 µM | > 100 µM | > 100 µM | > 100 µM | > 100 µM | > 100 µM | > 100 µM | – | – | – | – | – | – | – | – | – | – | – |
| Cn1nc(-c2ccccc2NC(=O)C(F)(F)F)c(=O)n(C)c1=S | – | 45 µM | 30.1 µM | – | > 100 µM | > 100 µM | > 100 µM | 74.4 µM | 50.7 µM | – | – | – | – | – | – | – | – | – | – | – |
| Cc1cc(C)nc(NS(=O)(=O)c2ccc(Nc3c4ccccc4nc4c(C(=O)Nc5ccc(S(N)(=O)=O)cc5)cccc34)cc2)n1 | > 100 µM | > 100 µM | > 100 µM | > 100 µM | – | > 100 µM | > 100 µM | > 100 µM | > 100 µM | – | – | – | – | – | – | – | – | – | – | – |
| COc1cc(-c2cc(C(=O)N3CCN(C(=O)c4ccccc4NCc4ccco4)CC3)nc3cc(-c4ccccc4)nn23)cc(OC)c1OC | 8.66 µM | > 75.4 µM | > 100 µM | > 100 µM | > 100 µM | > 100 µM | 4.17 µM | > 100 µM | – | 1.48 µM | 2.9 µM | 16.6 µM | 4.71 µM | 7.56 µM | 4.01 µM | 1.53 µM | 3.71 µM | 3.7 µM | 30.6 µM | – |
| O=C1C2=C(c3ccccc31)C(c1cccc(Cl)c1)NC(=S)N2 (configuration not stated) | > 100 µM | > 100 µM | > 100 µM | > 100 µM | > 100 µM | – | – | > 100 µM | > 100 µM | – | – | – | – | – | – | – | – | – | > 100 µM | – |
| CCOP(=O)(OCC)C1C(=O)O[C@H]2CCCC[C@@H]12 (some centres not stated) | > 100 µM | > 100 µM | > 100 µM | > 100 µM | > 100 µM | > 100 µM | > 100 µM | – | – | – | – | – | – | – | – | – | – | – | – | – |
| NC(N)=NC(CC(=O)O)c1ccccc1 (configuration not stated) | > 100 µM | > 100 µM | > 100 µM | > 100 µM | – | > 100 µM | > 100 µM | > 100 µM | > 100 µM | – | – | – | – | – | – | – | – | – | – | – |
| CCOC(=O)c1cccc(=O)c(C(=O)OCC)c1 | – | > 100 µM | > 100 µM | > 100 µM | > 100 µM | – | > 100 µM | > 100 µM | – | – | – | – | – | – | – | – | – | – | 62.1 µM | – |
| COc1cccc(NC(=O)c2sc3nc4c(cc3c2N)CCCC4)c1 | > 100 µM | – | > 100 µM | > 100 µM | > 100 µM | > 100 µM | 3.34 µM | > 100 µM | 24.7 µM | 3.83 µM | – | 0.905 µM | 0.391 µM | 1.6 µM | 0.729 µM | 0.365 µM | 0.859 µM | 0.228 µM | 0.765 µM | 0.598 µM |
| O=[N+]([O-])c1ccc(-c2ccc(/C=N/n3c(-c4ccc(Cl)cc4)n[nH]c3=S)o2)cc1 | > 75.5 µM | 32.3 µM | 34 µM | > 100 µM | > 100 µM | > 100 µM | – | > 100 µM | > 94.3 µM | – | – | – | – | – | – | – | – | – | > 100 µM | – |
| COc1cc(C2C(Cl)C(=O)N2n2cnc3ccccc3c2=O)cc(OC)c1OC (configuration not stated) | > 100 µM | > 100 µM | > 100 µM | > 100 µM | > 100 µM | > 100 µM | > 100 µM | > 100 µM | – | – | – | – | – | – | – | – | – | – | > 100 µM | – |
| COc1ccc(-c2oc3cc(O)c(OC)c(O)c3c(=O)c2OC2OC(CO)C(O)C(O)C2O)cc1 (configuration not stated) | > 100 µM | > 100 µM | > 100 µM | > 100 µM | > 100 µM | > 100 µM | – | > 100 µM | > 100 µM | – | – | – | – | – | – | – | – | – | > 100 µM | – |
| CC1(C)N=C(N)N=C(N)N1c1cccc(/C=C/C=C/c2cccc([N+](=O)[O-])c2)c1 | 19.8 µM | 50.1 µM | 20.5 µM | 17.9 µM | 18.5 µM | 19.2 µM | > 100 µM | > 100 µM | – | 4.4 µM | 13.6 µM | 7.1 µM | 3.74 µM | 4.71 µM | 5.02 µM | 17.4 µM | 55.2 µM | 2.55 µM | 13 µM | – |
| FC(F)(F)P1C2C=CC(CC2)C1(F)F (configuration not stated) | > 100 µM | > 100 µM | > 100 µM | > 100 µM | > 100 µM | > 100 µM | > 100 µM | > 100 µM | – | – | – | – | – | – | – | – | – | – | > 100 µM | – |
| CCOC(=O)Cc1c(Cc2[nH]c(C(=O)OCc3ccccc3)c(CC(=O)OCC)c2CC(=O)OCC)[nH]c(C(=O)OCc2ccccc2)c1CC(=O)OCC | > 100 µM | > 100 µM | > 100 µM | > 100 µM | – | – | – | > 100 µM | > 100 µM | – | – | – | – | – | – | – | – | – | > 100 µM | – |
| Cc1ccc(S(=O)(=O)N2CCCSCCSCCCSCC2)cc1 | > 100 µM | > 100 µM | > 100 µM | > 100 µM | > 100 µM | > 100 µM | – | > 100 µM | > 100 µM | – | – | – | – | – | – | – | – | – | > 100 µM | – |
| O=[N+]([O-])c1ccc(N/N=C\c2cc(Cl)ccc2O)nc1 | > 100 µM | 7.27 µM | > 100 µM | 34.1 µM | – | 8.47 µM | 38.8 µM | 5.45 µM | > 100 µM | 5.06 µM | 1.19 µM | 3.65 µM | 3.18 µM | – | 0.457 µM | 5.66 µM | 0.3 µM | 0.65 µM | 8.02 µM | 6.68 µM |
| CC(=O)Oc1c(C)n(CCCl)ccc1=O | > 100 µM | > 100 µM | > 100 µM | > 100 µM | – | > 100 µM | > 100 µM | > 100 µM | – | – | – | – | – | – | – | – | – | – | > 100 µM | – |
| O=C(Cc1ccccc1)NN1C(=O)C(Cl)C1c1cccc(O)c1 (configuration not stated) | 32.9 µM | 31.4 µM | 34.6 µM | – | 36.8 µM | 27.9 µM | 32.3 µM | 29.4 µM | – | – | – | – | – | – | – | – | – | – | 32.8 µM | – |
| COC(=O)Nc1nc2ccc(C(=O)c3ccc[nH]3)cc2[nH]1 | > 100 µM | > 26.9 µM | > 100 µM | > 100 µM | > 100 µM | > 100 µM | 4.78 µM | – | – | – | – | – | – | – | – | – | – | – | 0.927 µM | – |

Reference: PubChem BioAssay (NCI)
